Experiment [1] has as its target T1, PCSK9Δhelix (Homo sapiens, UniProt Q8NBP7).
T1 construct: Human PCSK9 construct M1-Q692 with an engineered TEV site (residue deletion Y166, R167); made in house; host or cells: CHO
The experiment can be described thus: Surface plasmon resonance biosensor-based affinity analysis (Example 4). Type of experiment: binding. To be noted: Table 7, Target PCSK9Δhelix, SPR at 20° C.; read-out: Kd. Background: In SPR one partner is held on a chip, and binding of the other changes the refractive index at the surface.
Method: All assays were conducted at an analysis temperature of 20° C. Samples were held at 10° C. in the sample rack to prevent denaturation of PCSK9 proteins. A biacore T100 from GE HealthCare and a SensiQ Pioneer FE were employed. All reagents were obtained from Sigma-Aldrich unless otherwise stated. The full set of peptides was analyzed using three closely related biosensor protocols that were expected to report equivalent affinity/kinetic parameters. The need for multiple protocols was related to the aggregation potential of some peptides. The buffer composition was largely conserved other than the addition of solubilizers such as dimethylsulfoxide (DMSO), 10 kDa polyvinylpyrrolidone (PVP) and 10 kDa carboxymethylated dextran (CM dextran).
A Series S NTA sensor chip was docked in the Biacore T100 biosensor system. The system was primed into running buffer (i.e. 50 mM HEPES, 0.15 M NaCl, 0.005% T20, pH 7.5). […]
This method was identical to method 1 except an alternative injection mode designated as single cycle kinetics (named by the manufacturer) was employed allowing a full dilution series to be completed during each sample cycle by replacing a single compound dilution injection with five sequential injections of increasing concentration. […] All recorded binding curves were automatically double referenced and fitted with a 1:1 model using BIAevaluation analysis software from GE HealthCare. […]

Experiment [2] deals with PCSK9 (Homo sapiens, UniProt Q8NBP7). The experiment can be described thus: PCSK9/EGF(A) TR-FRET binding assay. The note with it: for pIC50: TR-FRET, read-out: PCSK9/EGF(A) IC50. For orientation: Time-resolved FRET reads energy transfer from a long-lived donor to a nearby acceptor.
PCSK9, sequence (Q8NBP7 153-692): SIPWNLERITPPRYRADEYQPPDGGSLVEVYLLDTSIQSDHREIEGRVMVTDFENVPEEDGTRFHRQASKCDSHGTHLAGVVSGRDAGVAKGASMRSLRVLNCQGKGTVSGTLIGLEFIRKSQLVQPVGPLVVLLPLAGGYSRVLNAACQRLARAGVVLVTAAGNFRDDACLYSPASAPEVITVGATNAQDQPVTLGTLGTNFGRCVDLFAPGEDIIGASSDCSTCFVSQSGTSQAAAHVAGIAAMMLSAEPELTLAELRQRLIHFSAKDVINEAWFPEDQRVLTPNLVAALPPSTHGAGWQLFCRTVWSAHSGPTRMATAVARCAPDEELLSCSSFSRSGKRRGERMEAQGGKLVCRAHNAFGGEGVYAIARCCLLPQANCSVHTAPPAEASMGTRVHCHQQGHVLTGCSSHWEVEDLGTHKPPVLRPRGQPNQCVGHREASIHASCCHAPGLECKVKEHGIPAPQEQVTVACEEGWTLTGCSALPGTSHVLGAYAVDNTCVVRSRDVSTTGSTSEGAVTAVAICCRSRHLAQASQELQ
PCSK9, sequence (Q8NBP7 31-152 partner limits assumed): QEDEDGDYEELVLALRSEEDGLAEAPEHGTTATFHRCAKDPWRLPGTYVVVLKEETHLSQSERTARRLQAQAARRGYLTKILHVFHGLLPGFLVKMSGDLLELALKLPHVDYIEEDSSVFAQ
Experiment [3] has as its target T1, PCSK9Δhelix. The experiment can be described thus: PCSK9Δhelix/Ab20 TR-FRET binding assay. To be noted: for pIC50: TR-FRET, read-out: PCSK9Δhelix/Ab20 IC50.
Experiment [4] concerns His-EGF(A)-Fc. The experiment can be described thus: His-EGF(A)-Fc TR-FRET counterscreen.
Method: The former was based on a TF-FRET assay to measure the association of the EGF(A) domain of the LDLR to PCSK9 (“PCSK9/EGF(A) binding assay”) whilst the latter was based on a TR-FRET assay to measure binding of Ab20 to PCSK9Δhelix (“PCSK9Δhelix/Ab20 binding assay”).
The ability of compounds to inhibit binding to PCSK9 was evaluated with a panel of time-resolved fluorescence resonance energy transfer (TR-FRET) binding assays. […] The PCSK9Δhelix/Ab20 binding assay evaluated the ability of compounds to compete with Ab20 for binding to the N-terminal groove region in a His-tagged, PCSK9Δhelix construct. […] Signal generation in the PCSK9 binding assays was dependent upon the binding interaction to bring into close proximity the His-tag on the PCSK9 and the Fc-tag on the ligand. Anti-His-APC was bound to the His-tag, and anti-Fc-europium was bound to the Fc-tag. When these two antibodies were in close proximity and were irradiated with light at 340 nm, the europium was excited and emitted energy at 615 nm. This energy was taken up by the APC and was emitted as light at 665 nm. Compounds that competed with the ligand reduced the energy transfer and thus the emission at 665 nm. In the His-EGFA-Fc molecule in the counterscreen, the two tags were always in close proximity, thus any reduction in emission at 665 nm was due to interference with the detection system.
Compounds were solubilized and dilutions were prepared in DMSO. […] The plate was centrifuged to mix the well contents and allowed to incubate for 30 min. […] The TR-FRET signal was read on a ViewLux reader (PerkinElmer) with excitation at 340 nm and emission at 615 and 665 nm with a 50-μs time delay between excitation and measurement of emission. The TR-FRET ratio was calculated as the fluorescence emission at 665 nm divided by the fluorescence emission at 615 nm. The normalized TR-FRET ratios were plotted as a function of the compound concentrations, and the IC50 values were determined using a 4-parameter logistic regression.
In black 1536-well assay plates (MaKO, Aurora® Microplates, Whitefish, Mont.), 40 nL of peptide in DMSO were preincubated with 2 μL His-tagged PCSK9 plus anti-His-allophycocyanin in assay buffer (50 mM Tris-HCl, pH 7.5, 150 mM NaCl, 2 mM CaCl2, 0.01% Tween®-20, 0.1% bovine gamma globulins, and protease inhibitor cocktail) for 30 min. Then 2 μL of Fc-tagged ligand and anti-Fc-europium in assay buffer were added and allowed to incubate for 2 h.
Where [5] appears, read: TR-FRET counterscreen, Table 8E, additional compounds.

pIC50, pKd: −log10 of the molar value. Where two headings read alike, the source gives them in different places. Bridge positions count the residues as written; N and C are the ends. Square brackets hold non-standard residues; d marks the D form. Peptide text beside a SMILES is read from it. * marks the point of attachment. 5FAM = O=C1OC2(c3ccc(O)cc3Oc3cc(O)ccc32)c2ccc(C(=O)*)cc21; Trp(6-F) = N[C@@H](Cc1c[nH]c2cc(F)ccc12)C(=O)O; hArg = N=C(N)NCCCC[C@H](N)C(=O)O Bounds are passed on as bounds.

As a reminder, the pKd is the negative decadic logarithm of the Kd, by convention in mol/L.

T1 sequence (Q8NBP7 with tags, fused parts or gaps limits assumed): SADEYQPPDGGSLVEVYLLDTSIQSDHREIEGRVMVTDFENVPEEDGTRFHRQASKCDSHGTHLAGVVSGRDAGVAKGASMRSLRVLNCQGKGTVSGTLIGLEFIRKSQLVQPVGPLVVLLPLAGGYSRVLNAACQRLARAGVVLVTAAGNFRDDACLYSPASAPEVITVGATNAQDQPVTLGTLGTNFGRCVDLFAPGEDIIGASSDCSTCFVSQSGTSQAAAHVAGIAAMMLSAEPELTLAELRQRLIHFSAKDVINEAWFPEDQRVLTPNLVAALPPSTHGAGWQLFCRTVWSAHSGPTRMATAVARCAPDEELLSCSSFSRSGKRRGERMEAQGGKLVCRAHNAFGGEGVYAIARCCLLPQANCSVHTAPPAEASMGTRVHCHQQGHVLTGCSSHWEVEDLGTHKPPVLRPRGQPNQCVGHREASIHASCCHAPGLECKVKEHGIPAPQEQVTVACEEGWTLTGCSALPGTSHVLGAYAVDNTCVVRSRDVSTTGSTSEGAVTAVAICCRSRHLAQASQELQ
T1 sequence (Q8NBP7 31-152 partner limits assumed): as the sequence (Q8NBP7 31-152 partner limits assumed) above

As for `CC[C@H](C)[C@@H]1NC(=O)[C@H](CCCNC(=N)N)NC(=O)[C@H](CCC(N)=O)NC(=O)[C@H](CC(C)C)NC(=O)[C@H](CC(N)=O)NC(=O)[C@H](Cc2c[nH]c3ccccc23)NC(=O)[C@@H]2CCCN2C(=O)[C@H]([C@@H](C)CC)NC(=O)[C@H](Cc2ccccc2)NC(=O)[C@@H](NC(=O)CNC(=O)[C@H](CO)NC(=O)CNC(=O)[C@H](CO)NC(=O)c2ccc3c(c2)C(=O)OC32c3ccc(O)cc3Oc3cc(O)ccc32)CSSC[C@@H](C(N)=O)NC(=O)[C@H](CC(C)C)NC(=O)[C@H](CC(C)C)NC(=O)CNC1=O` [Compound 33] (5FAM-SGSGCFIPWNLQRIGLLC-NH2; disulfide 5-18), the pKd in experiment [1] is 5.00.

For `CC[C@H](C)[C@H](NC(=O)[C@H](CCCCNC(=N)N)NC(=O)[C@@H](NC(=O)[C@H](CC(C)C)NC(=O)[C@H](CC(N)=O)NC(=O)[C@@H](N)Cc1c[nH]c2ccccc12)C(C)C)C(=O)NCC(N)=O` [Compound 236, WNLV(homoR)IG-NH2] (H-WNLV[hArg]IG-NH2), the pIC50 is no more than 4.30 in experiment [2] (Table 8E, additional compounds); 4.66 in experiment [3] (Table 8E, additional compounds); no more than 4.30 in experiment [4] (setting [5]).

Take `CC[C@H](C)[C@H](NC(=O)[C@H](CCCCNC(=N)N)NC(=O)[C@@H](NC(=O)[C@H](CC(C)C)NC(=O)[C@H](CC(N)=O)NC(=O)[C@@H](N)Cc1c[nH]c2ccccc12)C(C)C)C(=O)NCC(=O)N[C@@H](CC(C)C)C(=O)N[C@@H](CC(C)C)C(=O)N[C@@H](CCC(N)=O)C(N)=O` [Compound 237, WNLV(homoR)IGLLQ-NH2] (H-WNLV[hArg]IGLLQ-NH2): the pIC50 is 5.06 in experiment [2] (Table 8E, additional compounds); 6.48 in experiment [3] (Table 8E, additional compounds); 4.34 in experiment [4] (setting [5]).

With `CC[C@H](C)[C@@H]1NC(=O)[C@H](CCCNC(=N)N)NC(=O)[C@H](CCC(N)=O)NC(=O)[C@H](CC(C)C)NC(=O)[C@H](CC(N)=O)NC(=O)[C@H](Cc2c[nH]c3ccccc23)NC(=O)[C@@H]2CCCN2C(=O)[C@H](CC(C)C)NC(=O)[C@H](CCCNC(=N)N)NC(=O)[C@@H](NC(=O)CNC(=O)[C@H](CO)NC(=O)CNC(=O)[C@@H](NC(=O)[C@H](Cc2c[nH]c3ccccc23)NC(=O)[C@H](CC(=O)O)NC(=O)[C@H](CC(C)C)NC(=O)[C@H](Cc2ccc(O)cc2)NC(=O)[C@H](CCC(=O)O)NC(=O)[C@H](CCC(=O)O)NC(=O)[C@H](Cc2c[nH]c3cc(F)ccc23)NC(=O)[C@H](CO)NC(=O)[C@@H](NC(=O)[C@H](Cc2ccccc2)NC(=O)[C@@H](NC(=O)[C@@H](NC(C)=O)[C@@H](C)O)C(C)C)[C@@H](C)O)C(C)C)CSSC[C@@H](C(N)=O)NC(=O)[C@@H]2CCCN2C(=O)[C@H](CC(C)C)NC(=O)CNC1=O` [Compound 241] (Ac-TVFTS[Trp(6-F)]EEYLDWVGSGCRLPWNLQRIGLPC-NH2; disulfide 17-30 (inferred)), the pIC50 was 5.80 in experiment [2] (Table 8E, additional compounds); 7.00 in experiment [3] (Table 8E, additional compounds); no more than 4.30 in experiment [4] (setting [5]).

As for Ac-DAMPWNLVRIGLLR-NH2 [Compound 44], the pIC50 in experiment [2] (Example 7) is less than 4.30; in experiment [3] (Example 7), 5.16; in experiment [4] (counterscreen, Example 7), less than 4.30.

Take Ac-DLAPWNLVRIGLLR-NH2 [Compound 43]: the pIC50 is less than 4.30 in experiment [2] (Example 7); 5.09 in experiment [3] (Example 7); less than 4.30 in experiment [4] (counterscreen, Example 7).

Consider Ac-DLMAWNLVRIGLLR-NH2 [Compound 42], for which the pIC50 in experiment [2] (Example 7) is less than 4.30; in experiment [3] (Example 7), 4.55; in experiment [4] (counterscreen, Example 7) it was less than 4.30.

Ac-DLMPANLVRIGLLR-NH2 [Compound 41]: the pIC50 in experiment [2] (Example 7) is less than 4.30; in experiment [3] (Example 7), less than 4.31; in experiment [4] (counterscreen, Example 7) it was less than 4.30.

Consider Ac-DLMPWALVRIGLLR-NH2 [Compound 62], for which the pIC50 was less than 4.30 in experiment [2] (Example 7); less than 4.31 in experiment [3] (Example 7); less than 4.30 in experiment [4] (counterscreen, Example 7).

Consider Ac-DLMPWNAVRIGLLR-NH2 [Compound 61], for which the pIC50 in experiment [2] (Example 7) was less than 4.30; in experiment [3] (Example 7) it was less than 4.31; in experiment [4] (counterscreen, Example 7), less than 4.30.

Take Ac-DLMPWNLARIGLLR-NH2 [Compound 60]: the pIC50 in experiment [2] (Example 7) was less than 4.30; in experiment [3] (Example 7), 4.72; in experiment [4] (counterscreen, Example 7), less than 4.30.

On to Ac-DLMPWNLKRIGLLR-NH2 [Compound 158], for which the pIC50 is no more than 4.30 in experiment [2] (Table 8E, additional compounds); 4.92 in experiment [3] (Table 8E, additional compounds); no more than 4.30 in experiment [4] (setting [5]).

For the compound Ac-DLMPWNLVAIGLLR-NH2 [Compound 59], the pIC50 in experiment [2] (Example 7) was less than 4.30; in experiment [3] (Example 7), less than 4.31; in experiment [4] (counterscreen, Example 7), less than 4.30.

As to Ac-DLMPWNLVRAGLLR-NH2 [Compound 58], the pIC50 in experiment [2] (Example 7) is less than 4.30; in experiment [3] (Example 7) it was less than 4.31; in experiment [4] (counterscreen, Example 7), less than 4.30.

As for Ac-DLMPWNLVRI-NH2 [Compound 49], the pIC50 in experiment [2] (Example 7) was less than 4.30; in experiment [3] (Example 7) it was no more than 4.31; in experiment [4] (counterscreen, Example 7) it was less than 4.30.

In the case of Ac-DLMPWNLVRIALLR-NH2 [Compound 57], the pIC50 was less than 4.30 in experiment [2] (Example 7); less than 4.31 in experiment [3] (Example 7); less than 4.30 in experiment [4] (counterscreen, Example 7).

As to Ac-DLMPWNLVRIG-NH2 [Compound 48], the pIC50 is less than 4.30 in experiment [2] (Example 7); no more than 4.31 in experiment [3] (Example 7); less than 4.30 in experiment [4] (counterscreen, Example 7).

For the compound Ac-DLMPWNLVRIGALR-NH2 [Compound 56], the pIC50 in experiment [2] (Example 7) is less than 4.30; in experiment [3] (Example 7), 4.77; in experiment [4] (counterscreen, Example 7), less than 4.30.

As for Ac-DLMPWNLVRIGL-NH2 [Compound 47], the pIC50 was less than 4.30 in experiment [2] (Example 7); 4.90 in experiment [3] (Example 7); less than 4.30 in experiment [4] (counterscreen, Example 7).

Ac-DLMPWNLVRIGLL-NH2 [Compound 46]: the pIC50 was less than 4.30 in experiment [2] (Example 7); 4.85 in experiment [3] (Example 7); less than 4.30 in experiment [4] (counterscreen, Example 7).

Ac-DLMPWNLVRIGLLA-NH2 [Compound 54]: the pIC50 in experiment [2] (Example 7) was less than 4.30; in experiment [3] (Example 7), 4.81; in experiment [4] (counterscreen, Example 7) it was less than 4.30.

Take Ac-DLMPWNLVRIGLPR-NH2 [Compound 160]: the pIC50 in experiment [2] (Table 8E, additional compounds) was no more than 4.30; in experiment [3] (Table 8E, additional compounds), 4.72; in experiment [4] (setting [5]), no more than 4.30.

On to Ac-GGMPWNLVRIGLLR-NH2 [Compound 125], for which the pIC50 in experiment [2] (Table 8E, additional compounds) was no more than 4.30; in experiment [3] (Table 8E, additional compounds), 5.15; in experiment [4] (setting [5]), no more than 4.30.

For the compound Ac-GLMPWNLVRIGLLR-NH2 [Compound 124], the pIC50 in experiment [2] (Table 8E, additional compounds) was no more than 4.30; in experiment [3] (Table 8E, additional compounds), 5.41; in experiment [4] (setting [5]), no more than 4.30.

Ac-PWNLVRIGL-NH2 [Compound 119]: the pIC50 was less than 4.30 in experiment [2] (Example 7); no more than 4.31 in experiment [3] (Example 7); less than 4.30 in experiment [4] (counterscreen, Example 7).

Consider Ac-SGDLMPWNLVRIGLLR-NH2 [Compound 122], for which the pIC50 was no more than 4.30 in experiment [2] (Table 8E, additional compounds); 5.25 in experiment [3] (Table 8E, additional compounds); no more than 4.30 in experiment [4] (setting [5]).

Take “Ac-TVFTSWEEYLDWVGSGGKLWNLGRV-NH2 [Compound 9]”: the pIC50 in experiment [2] (Example 7) is 6.41; in experiment [3] (Example 7), 7.19; in experiment [4] (counterscreen, Example 7), less than 4.30.

“Ac-TVFTSWEEYLDWVGSGKLWN-NH2 [Compound 7]”: the pIC50 was 6.30 in experiment [2] (Example 7); 4.73 in experiment [3] (Example 7); less than 4.30 in experiment [4] (counterscreen, Example 7).

Take “Ac-TVFTSWEEYLDWVGSGKLWNLGRV-NH2 [Compound 1]”: in experiment [2], the “inhibition in the PCSK9/EGF(A) binding assay” value is “comparable activity to Pep2-8”. The “inhibition in the PCSK9Δhelix/Ab20 binding assay” value in experiment [3] is recorded as “superior activity”. The pIC50 in experiment [3] (Example 7) is 7.68; in experiment [4] (counterscreen, Example 7), less than 4.30.

As to Ac-WNLVRIGL-NH2 [Compound 120], the pIC50 is less than 4.30 in experiment [2] (Example 7); no more than 4.31 in experiment [3] (Example 7); less than 4.30 in experiment [4] (counterscreen, Example 7).

The record behind these values is patent US11034725B2, “Compositions and methods for treating cardiovascular disease” (Genentech, Inc., priority 2016, dated 2021).
